# Test results published in patent US20070134261A1, “Effectors of innate immunity” (priority 2001, published 2007).
# Like-named read-outs stand apart in the source and are kept apart here. Residues, ends and D or L forms follow the SMILES beside them.
# Key:
# [1] = system: human bronchial epithelial cells (16HBEo14); test: Induction of IL-8 in HBE cells; format: cell-based; settings: for IL-8: 8 h
# Description: (§1) The murine macrophage cell line RAW 264.7, THP-1 cells (human monocytes), a human epithelial cell line (A549), human bronchial epithelial cells (16HBEo14), and whole human blood were used. HBE cells were grown in MEM with Earle's. THP-1 cells were grown and maintained in RPMI 1640 medium. The RAW and A549 cell lines were maintained in DMEM supplemented with 10% fetal calf serum. […] DMEM was aspirated from cells grown overnight and replaced with fresh medium. After incubation of the cells with peptide, the release of chemokines into the culture supernatant was determined by ELISA (R&D Systems, Minneapolis, Minn.).
# [2] = format: cell-based
# whole human blood = format: cell-based; settings: 4 hr (0 μg/ml: 3205)
# S. aureus = test: Murine S. aureus infection model (CD-1 mice); format: in vivo, mouse; settings: peptide 200 μg IP; for CFU/ml (blood): 3 days, No Peptide 7.61 ± 1.7 × 10^3; for # Mice Survived (3 days)/Total mice in group: No Peptide 6/8
# Description: (§2) BALB/c mice were given 1×10^5 Salmonella and cationic peptide (200 μg) by intraperitoneal injection. The mice were monitored for 24 hours at which point they were euthanized, the spleen removed, homogenized and resuspended in PBS and plated on Luria Broth agar plates with Kanamycin (50 μg/ml). The plates were incubated overnight at 37° C. and counted for viable bacteria (Table 49 and 50). CD-1 mice were given 1×10^8 S. aureus in 5% porcine mucin and cationic peptide (200 μg) by intraperitoneal injection (Table 51). The mice were monitored for 3 days at which point they were euthanized, blood removed and plated for viable counts. CD-1 male mice were given 5.8×10^6 CFU EHEC bacteria and cationic peptide (200 μg) by intraperitoneal (IP) injection and monitored for 3 days (Table 52). […] Many of the cationic peptides were shown not to be directly antimicrobial as tested by the Minimum Inhibitory Concentration (MIC) assay (Table 54).
# HBE cells = test: WST-1 assay (cell viability); format: cell-based, human
# Summary of the method: (§3)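 Both read-outs were colorimetric at OD490 on HBE cells after 24 h with 100 μg of each peptide. The WST-1 assay reported viability through mitochondrial dehydrogenase cleavage of the tetrazolium salt. The LDH assay tested the removed supernatant for enzyme leaked from membrane-damaged cells.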
# BALB/c mice = test: Lethal endotoxemia in galactosamine-sensitized BALB/c mice; format: in vivo; settings: 2 μg LPS; peptide 200 μg/mouse = 8 mg/kg IP 15 min after LPS; 48 hours; no peptide 10
# Salmonella = Salmonella infection in BALB/c mice (viable bacteria in spleen); format: in vivo, mouse; settings: Table 49; peptide 200 μg IP, 24 h; Control 2.70 ± […] 10^5
# Description: as §2
# [3] = system: RAW 264.7 mouse macrophage cells; format: cell-based; settings: Peptide 20 μg/ml; 100 ng/ml E. coli 0111:B4 LPS, 6 h
# [4] = system: A549 human epithelial cells; test: Induction of chemokines (IL-8, MCP-1) in A549 cells (ELISA); format: cell-based; settings: peptide 10 ug/ml, 24 hr
# Description: as §1
# CD-1 mice = test: Lethal endotoxemia in galactosamine-sensitized CD-1 mice; format: in vivo; settings: 2 μg LPS; peptide 200 μg/mouse = 8 mg/kg IP 15 min after LPS; 48 hours; control 0
# [5] = system: human bronchial epithelial cells (HBE); test: LDH release assay (Cytotoxicity Detection Kit); format: cell-based; settings: 100 μg/ml, 24 hours; no peptide control 1.0 ± 0.05
# Summary of the method: as §3
Structure (SMILES),"MIC, C. rhod. ([2]; 24 h) [µg/mL]","MIC, E. coli ([2]; 24 h) [µg/mL]","MIC, P. aerug. ([2]; 24 h) [µg/mL]","MIC, S. aureus ([2]; 24 h) [µg/mL]","MIC, S. typhim. ([2]; 24 h) [µg/mL]",CFU/ml (blood) (S. aureus),# Mice Survived (3 days)/Total mice in group (S. aureus),Survival (BALB/c mice) [%],Viable Bacteria in the Spleen (Salmonella),"MIC, EHEC ([2]; 24 h) [µg/mL]",Inhibition of TNF-α [3] [%],IL-8 [4] [ng/mL],Survival (CD-1 mice) [%],LDH Release (OD490 nm) [5] [OD490 nm],further results
CC[C@H](C)[C@H](N)C(=O)N[C@@H](CC(C)C)C(=O)N1CCC[C@H]1C(=O)N[C@@H](Cc1c[nH]c2ccccc12)C(=O)N[C@@H](CCCCN)C(=O)N[C@@H](Cc1c[nH]c2ccccc12)C(=O)N1CCC[C@H]1C(=O)N[C@@H](Cc1c[nH]c2ccccc12)C(=O)N[C@@H](Cc1c[nH]c2ccccc12)C(=O)N1CCC[C@H]1C(=O)N[C@@H](Cc1c[nH]c2ccccc12)C(=O)N[C@@H](CCCNC(=N)N)C(=O)N[C@@H](CCCNC(=N)N)C(N)=O [SEQ ID NO: 2],64,4,32,16,16,,,,,,,,,,induction of IL-8 [1]: significantly induced IL-8; IL-8 ([1]; peptide 0.1 μg/ml): 670 ± 155 pg/mL; IL-8 ([1]; peptide 1 μg/ml): 712 ± 205 pg/mL; IL-8 ([1]; peptide 10 μg/ml): 941 ± 15 pg/mL; IL-8 ([1]; peptide 50 μg/ml): 1490 ± 715 pg/mL; IL-8 (whole human blood; 10 μg/ml peptide + E. coli O111:B4 LPS): 1912 pg/mL; IL-8 (whole human blood; 50 μg/ml peptide + E. coli O111:B4 LPS): 1458 pg/mL
CC[C@H](C)[C@H](NC(=O)[C@@H]1CCCN1C(=O)[C@H](CS)NC(=O)[C@H](CCCNC(=N)N)NC(=O)[C@@H](N)CC(C)C)C(=O)N[C@@H](C)C(=O)N1CCC[C@H]1C(=O)N[C@H](C(=O)N[C@H](C(=O)N1CCC[C@H]1C(=O)N[C@H](C(=O)N[C@@H](CS)C(=O)N[C@@H](CCCCN)C(=O)N[C@@H](CCCCN)C(=O)O)C(C)C)[C@@H](C)CC)C(C)C [SEQ ID NO: 6] (H-LRCPIAPVIPVCKK-OH; N-terminus and C-terminus assumed),64,128,,,128,1.98 ± 0.05 × 10^2 CFU/ml,3/4,17,2.57 ± 0.72 × 10^4 CFU/ml,64,59.8 ± 1.2,0.181,40,0.97 ± 0.02,"OD490 nm (WST-1 cell viability) (HBE cells): 1.81 ± 0.05 OD490 nm; MIC, S. aureus ([2]; Staphylococcus aureus, overnight, 96-well plate): >"
CSCC[C@H](NC(=O)[C@H](CO)NC(=O)[C@@H](NC(=O)[C@H](CCCCN)NC(=O)[C@H](Cc1ccccc1)NC(=O)[C@H](CS)NC(=O)[C@H](CO)NC(=O)[C@H](CCCNC(=N)N)NC(=O)[C@@H](N)CCCCN)C(C)C)C(=O)N[C@@H](CCCNC(=N)N)C(=O)NCC(=O)N[C@H](C(=O)N[C@@H](CO)C(=O)N[C@@H](CCCNC(=N)N)C(=O)N[C@@H](CCCNC(=N)N)C(=O)N[C@@H](CCCNC(=N)N)C(=O)N[C@@H](CS)C(=O)N[C@@H](CCCCN)C(=O)O)C(C)C [SEQ ID NO: 27] (H-KRSCFKVSMRGVSRRRCK-OH; N-terminus and C-terminus assumed),2,8,64,64,16,2.25 ± 0.1 × 10^2 CFU/ml,3/4,50,1.01 ± 0.26 × 10^5 CFU/ml,4,51.1 ± 2.8,0.346,20,0.91 ± 0.04,"OD490 nm (WST-1 cell viability) (HBE cells; 100 μg/ml, 24 hours, no peptide control 1.63 ± 0.16): 1.63 ± 0.03 OD490 nm"
